Where a name gives a salt, the structure may show the parent alone.
Legend:
in vivo = settings: mouse, iv, 10 mg/kg
Method: At 1, 4, 24, and 48 hours, the animals were terminated by CO2 asphyxiation and whole blood was collected via cardiac puncture. The collected blood was immediately placed into EDTA coated tubes (MICROTAINERS® from Becton Dickinson). Subsequently, plasma was prepared by centrifuging the EDTA treated whole blood at 500×g for 10 min. Lipid and drug was assayed via [^3 H]-Cholesteryl hexadecyl ether and I^14 C]-mitoxantrone tracer using a scintillation counter as described above.
An estimation of the amount of mitoxantrone retained in the liposomes that are in the circulation can be made by determining the ratio of mitoxantrone-to-lipid at the indicated time points. This estimation assumes that the level of free drug in the plasma of animals given liposomal mitoxantrone will be negligible.

[1] = Toxic dose range finding (maximum tolerated dose) in tumor-free mice; settings: mouse, in vivo
Method: (§1) Injections were administered in a volume of 200 μL. In order to achieve this volume for the 20 mg/kg dose, the stock mixture was concentrated using Aquacide II. Survival times of the mice were then monitored over a sixty day time course. Increase in life span (ILS %) was calculated as follows: [formula] Maximum tolerated dose was determined by monitoring the weight loss of the mice over a two week period. If the mice lost greater than 30% of the original weight then the mice are terminated.

L1210 = L1210 anti-tumor activity (survival); format: in vivo, BDF1 mice; settings: for 60 Day Survival / Mean Survival: single; for % ILS (Increase in Life Span): vs untreated control
Method: as §1
The antitumor effects of free mitoxantrone and liposomal mitoxantrone were compared using the L1210 tumor model. L1210 is a murine lymphocytic leukemia. […] This provides identical tumor models for the two organs.

[2] = Change in body weight during efficacy studies
Method: as §1

[3] = test system: tumor models and human carcinomas; settings: cited from earlier work

SMILES | AUC (in vivo) | MTD [1] | maximum therapeutic dose (L1210; 10^4 L1210 cells i.v., treated 24 h later) | 60 Day Survival (L1210; drug dose 5 mg/kg) | Mean Survival (L1210; drug dose 5 mg/kg) | % ILS (Increase in Life Span) (L1210; drug dose 5 mg/kg) | 60 Day Survival (L1210; drug dose 10 mg/kg) | Mean Survival (L1210; drug dose 10 mg/kg) | % ILS (Increase in Life Span) (L1210; drug dose 10 mg/kg) | 60 Day Survival (L1210; drug dose 20 mg/kg) | Mean Survival (L1210; drug dose 20 mg/kg) | % ILS (Increase in Life Span) (L1210; drug dose 20 mg/kg) | maximum % increase in life span (L1210; maximum over the doses tested) | body weight loss at nadir ([2]; L1210-bearing mice, free 10 mg/kg, liposomal 20 mg/kg, day 12 to 13) | MTD ([2]; mouse, in vivo) | short and long term toxicity compared with doxorubicin [3] | toxic side effect [3]
O=C1c2c(O)ccc(O)c2C(=O)c2c(NCCNCCO)ccc(NCCNCCO)c21 [Free Mitoxantrone, mitoxantrone hydrochloride] | 11.4 ng·h/mL | 10 mg/kg | 10 mg/kg | 0/5 | 13.6 days | 58% | 0/5 | 16.6 days | 93% | 0/5 | 12.6 days | 47% | 93% | ~30% | 10 mg/kg | lower short and long term toxicity than doxorubicin | myelosuppression
COc1cccc2c1C(=O)c1c(O)c3c(c(O)c1C2=O)C[C@@](O)(C(=O)CO)C[C@@H]3O[C@H]1C[C@H](N)[C@H](O)[C@H](C)O1 [doxorubicin] | – | – | – | – | – | – | – | – | – | – | – | – | – | – | – | – | dose limiting cardiotoxicity

Source: US5858397A, “Liposomal formulations of mitoxantrone” (priority 1995, dated 1999)
